In article PMC12045974, “T cell toxicity induced by tigecycline binding to the mitochondrial ribosome” (Nature Communications, 2025):
Values joined by “and” are separate entries in the source; they are usually repeats but may differ in a detail not shown here. Identical values can stand only once.

What was measured:
Format in all cases: cell-based, human
[1] = system: CD4+ and CD8+ T cells; test: Short-term activation assay, CD25 expression on stimulated T cells; details: for mean MFI of CD25: 18 h after anti-CD3/CD28 activation + IL-2
Experimental: (§1) After thawing frozen PBMCs, cells were washed with RPMI complemented with 10% FBS, 2.05 mM L-glutamine (Sigma), and 55 μM 2-ME (Gibco) and rested at 37 °C (5% CO2) for 30 min. 250,000 cells per well were seeded in 96-well U-bottom plates with/without Human T-Activator CD3/CD28 beads (Invitrogen) at a 1:1 ratio and 10 ng/ml IL-2 (Proteintech) in RPMI-1640 medium mentioned above. At the same time, antibiotics were added. For the short-term activation assay, cells were harvested 18 h post-stimulation and stained with Aqua fixable live/dead dye (Invitrogen) and surface markers. For the proliferation assays, cells were stained with CFSE (eBioscience) or Cell Trace Violet (ThermoFisher Scientific) dyes before seeding and stimulation, according to the manufacturer’s recommendations. For TCR priming experiments, tigecycline was added at 0, 24 or 72 h post-activation. For mitochondrial mass measuring, cells were stained with Mitotracker Green Fm Dye (Thermo Fisher Scientific) after incubation with Tigecycline. After incubation for 6 days with a half medium (complete, with antibiotics and IL-2) change after 3 days, cells were harvested via centrifugation, and stained with live/dead dye and surface markers for analysis by flow cytometry. The Foxp3/Transcription Factor Staining Buffer Set (Invitrogen) was used to fix cells according to the manufacturer’s instructions. The FACS gating strategy is shown in Supplementary Fig. 2D. Flow cytometry was carried out on a BD Celesta (BD Biosciences) and analyzed in FlowJo (TreeStar) software.

[2] = system: CD4+ and CD8+ T cells within PBMCs; test: T cell proliferation by flow cytometry (CTV/CFSE dilution) in stimulated PBMCs
Experimental: as §1

[3] = system: CD4+ and CD8+ T cells; test: Mitochondrial mass by MitoTracker Green staining; details: for mitochondrial mass (MitoTracker Green): 10 μM, after 24 h or 7 days of treatment
Experimental: as §1

CN(C)c1cc(NC(=O)CNC(C)(C)C)c(O)c2c1C[C@H]1C[C@H]3[C@H](N(C)C)C(O)=C(C(N)=O)C(=O)[C@@]3(O)C(O)=C1C2=O [Tigecycline, tigecycline]
mean MFI of CD25 ([1]; CD4, 2.5 μM): 3754 and 3553 and 3674 | mean MFI of CD25 ([1]; CD4, 5 μM): 3471 and 3450 and 3256 | mean MFI of CD25 ([1]; CD4, 10 μM): 3082 and 3057 and 2814 | mean MFI of CD25 ([1]; CD8, 2.5 μM): 4522 and 5003 and 6223 | mean MFI of CD25 ([1]; CD8, 5 μM): 4093 and 4409 and 4799 | mean MFI of CD25 ([1]; CD8, 10 μM): 3582 and 3463 and 3588 | expression of T cell activation marker CD25 (IL2RA) ([1]; stimulated CD4+ and CD8+ T cells, 18 h post-priming): reduced expression | T cell culture proliferation ([2]; 10 μM administered 24 or 72 h after TCR stimulation): significantly reduce | T cell proliferation ([2]; CD4+ and CD8+ T cells within PBMCs, 6 days of anti-CD3/CD28 stimulation + IL-2): dose-dependent reductions in proliferation | % Cells in division 4 or later ([2]; CD4, 0H): 0.15% and 0.18% and 0.39% | % Cells in each division ([2]; CD4, 0H, division number 1): 23.9% and 13% and 15.5% | % Cells in each division ([2]; CD4, 0H, division number 2): 20.2% and 38.4% and 32.9% | % Cells in each division ([2]; CD4, 0H, division number 4): 0.42% and 2.83% and 5.88% | % Cells in each division ([2]; CD4, 0H, division number 5): 0% and 0.019% and 0.22% | % Cells in each division ([2]; CD4, 0H, division number 6): 0% | % Cells in each division ([2]; CD4, 0H, division number 7): 0% | % Cells in division 4 or later ([2]; CD4, 10μM, 6 days, CTV dilution in live cells): 6.485% and 4.27% and 0.862% and 2.104% and 3.325% | % Cells in division 4 or later ([2]; CD4, 24H): 0.21% and 0.19% and 0.9% | % Cells in each division ([2]; CD4, 24H, division number 2): 18.2% and 32.4% and 28.8% | % Cells in each division ([2]; CD4, 24H, division number 5): 0.044% and 0.15% and 0.38% | % Cells in each division ([2]; CD4, 24H, division number 6): 0% and 0.01% | % Cells in each division ([2]; CD4, 24H, division number 7): 0% | % Cells in each division ([2]; CD4, 72H, division number 3): 22.6% and 24.4% and 18.1% | % Cells in each division ([2]; CD4, 72H, division number 6): 1.08% and 0.32% and 1.2% | % Cells in each division ([2]; CD4, 72H, division number 7): 0% | % Cells in division 4 or later ([2]; CD8, 0H): 0.42% and 2.88% and 6.11% | % Cells in each division ([2]; CD8, 0H, division number 1): 38.7% and 31.7% | % Cells in each division ([2]; CD8, 0H, division number 2): 25.1% and 40.8% and 45.6% | % Cells in each division ([2]; CD8, 0H, division number 3): 4.86% and 6.4% and 12.3% | % Cells in each division ([2]; CD8, 0H, division number 4): 0.15% and 0.18% and 0.36% | % Cells in each division ([2]; CD8, 0H, division number 5): 0% and 0.019% | % Cells in each division ([2]; CD8, 0H, division number 6): 0% | % Cells in each division ([2]; CD8, 0H, division number 7): 0% | % Cells in division 4 or later ([2]; CD8, 2.5μM, 6 days, CTV dilution in live cells): 47.18% and 43.35% and 55.18% and 63.83% and 48.432% | % Cells in division 4 or later ([2]; CD8, 10μM, 6 days, CTV dilution in live cells): 6.12% and 2.26% and 7.121% and 11.81% and 6.155% | % Cells in each division ([2]; CD8, 24H, division number 1): 36.2% and 37.7% and 34% | % Cells in each division ([2]; CD8, 24H, division number 2): 22.1% and 39.5% and 41.6% | % Cells in each division ([2]; CD8, 24H, division number 3): 4.04% and 8.22% and 12.9% | % Cells in each division ([2]; CD8, 24H, division number 4): 0.19% and 0.87% | % Cells in each division ([2]; CD8, 24H, division number 5): 0.018% and 0% and 0.019% | % Cells in each division ([2]; CD8, 24H, division number 6): 0% | % Cells in each division ([2]; CD8, 24H, division number 7): 0% | % Cells in each division ([2]; CD8, 72H, division number 0): 1.06% and 7.49% and 1.18% | % Cells in each division ([2]; CD8, 72H, division number 2): 24.9% and 34.1% and 20.9% | % Cells in each division ([2]; CD8, 72H, division number 3): 45.1% and 28.9% and 40.2% | % Cells in each division ([2]; CD8, 72H, division number 5): 2.16% and 0.67% and 3.66% | % Cells in each division ([2]; CD8, 72H, division number 6): 0.03% and 0.025% and 0.033% | % Cells in each division ([2]; CD8, 72H, division number 7): 0% | mitochondrial mass (MitoTracker Green) [3]: no significant changes in mitochondrial mass | mitochondrial mass (MitoTracker Green) ([3]; listed as tigecyline): comparable mitochondrial mass | mitochondrial mass relative to Unstim (=1), sheet sFig-1E+F ([3]; 24H, CD4, Stim-10µM, per PBMC donor): 1.522 and 1.33 and 0.8198 | mitochondrial mass relative to Unstim (=1), sheet sFig-1E+F ([3]; 24H, CD4, Unstim-10µM, per PBMC donor): 1.004 and 0.6673 and 1.041 | mitochondrial mass relative to Unstim (=1), sheet sFig-1E+F ([3]; 24H, CD8, Unstim-10µM, per PBMC donor): 0.5804 and 1.017 and 1.063 | mitochondrial mass relative to Unstim (=1), sheet sFig-1E+F ([3]; 7 days, CD4, STI 24H, per PBMC donor): 2.7235 and 3.361 and 2.725 | mitochondrial mass relative to Unstim (=1), sheet sFig-1E+F ([3]; 7 days, CD4, STI 72H, per PBMC donor): 2.708 and 3.517 and 2.769 | mitochondrial mass relative to Unstim (=1), sheet sFig-1E+F ([3]; 7 days, CD4, Stim-10µM, per PBMC donor): 2.414 and 2.323 and 2.6393 | mitochondrial mass relative to NO STI (=1), sheet sFig-1E+F ([3]; 7 days, CD8, STI-10µM, per PBMC donor): 1.791 and 3.1924 and 2.433
